Legend:
[1] = tested on: E-ras 20 cells (E-ras transformed bovine endothelial cells); assay: Tumorigenicity of pretreated E-ras 20 cells in athymic nude mice; format: in vivo, bovine cells in nude mice; conditions: 10 μM
Protocol: E-ras transformed bovine endothelial cells (Bauer et al., 1996, Intl. J. Oncology 8:239-252) were exposed to 10 μM DIME for […]. The DIME-treated cells (10^5 or 10^6 cells/100 μL) were injected subcutaneously into nude mice and tumor progression followed for 25 days.
Tumorigenicity of E-ras 20 Cells in athymic nude mice was assayed as described previously. Bauer et al., 1996, "Modification of growth related enzymatic pathways and apparent loss of tumorigenicity of a ras-transformed bovine endothelial cell line by treatment with 5-iodo-6-amino-1,2-benzopyrone (INH2 BP)" Intl. J. Oncol. 8:239-252. The in vivo antitumorigenic action of DIME was assayed on athymic mice inoculated with 10^6 MDA-MB-231 cells, as in the tumorgenicity assay. In about 10-14 days when subcutaneous tumors appeared, DIME treatment consisting of p.o. administration of DIME suspension (once a day) was commenced and continued for 28-32 days as reported, Kun et al., 1996, "Induction of tumor apotosis by methyl-3,5-diiodo-4-(4'-methoxyphenoxy) benzoate (DIME)", Abstract No. 102, Int. J. Oncol. 9:supplement 829.
The structural specificity of DIME and its homologs and analogs can be assessed by examining Table 7 and Table 8. We have prepared 17 novel structural analogs of DIME and compared the antitumor activity of 10 of the compounds (Table 8) which appears sufficient to draw some general conclusions. The biological assay chosen was the determination of antitumorigenic action of the drugs on the in vivo tumorigenicity of E-ras cells in nude mice, Bauer et al., 1996, "Modification of growth related enzymatic pathways and apparent loss of tumorigenicity of a ras-transformed bovine endothelial cell line by treatment with 5-iodo-6-amino-1,2-benzopyrone (INH2 BP)" Intl. J. Oncol. 8:239-252. E-ras 20 cells (10^5 or 10^6) were incubated with 10 μM DIME or analogs for 4 days, then 10^5 and 10^6 cells were inoculated subcutaneously into nude mice (5 per test) and rates of tumor formation quantitated by direct tumor volume measurements (cf. 2). […] Identical antitumorigenic tests were performed with nine DIME analogs and taking the effect of DIME as 100% (comparing tumor sizes at day 25) the antitumor efficacy was calculated as percent of DIME activity. […] Results summarized in Table 8 illustrate that substituents in R1 and R2 determine antitumor efficacy.
The efficacy of DIME analogs on in vivo tumorigenicity of Eras 20 cells i
athymic mice was compared to that of DIME (compound 1) which was taken as
100, determining the size of tumor reduction at day 25. Pretreatment with
DIME or its analogs (Table 7) was with 10 μM for 4 days prior to s.c.

[2] = tested on: A-549 (lung cancer) cell extracts, esterase; assay: Esterase cleavage of DIME by A-549 cell extracts (TLC); format: in vitro ADME, human
Protocol: In the experiment shown in lines 1 and 2 the esterase activity of the extract occurs during 4 hours incubation with 1 μM DIME. […] Lines 3 and 4 depict the same experiments as in lines 1 and 2, except the cell extracts were prepared from intact cells preincubated for 24 hours with 1 μM DIME, then washed and extracted.
(a) mouse tissue homogenate (brain, kidney, liver lung) consisting of 0.2 g of tissue in 1.0 ml. of homogenization buffer (50 mM Tris (pH 7.4), 400 mM NaCl, 10 mM MgCl2, 1 mM EDTA, 0.5% NP-40, 0.5 mM PMSF) each were combined with 1.0 ml of MES buffer (100 mM ph 6.5) containing 20 μM [^14 C]-DIME (10.55 mCi/mmol), and the mixtures were incubated at 37° C. for 4 hours. Then to each tube was added sequentially ethyl acetate (1.5 ml), ammonium sulfate (900 mg) and 60% perchloric acid (160 μl), with vortexing after each addition. After standing for 10 minutes, phase separation was enhanced by benchtop centrifugation. The upper (ethyl acetate) layer was drawn off, and the lower aqueous and interphase material was extracted with a second portion of ethyl acetate (1.5 ml). The ethyl acetate extracts (combined) contained more than 90% of the total cpm present in the original incubate (ca. 4×10^5 cpm). […]

MDA-MB-231 cells = assay: Flow cytometry / M phase block; format: cell-based, human
Protocol: The MDA-MB-231 cell line was obtained from ATCC (Rockville, Md., USA) and cells were cultured in T-75 flasks at 37° C. in Minimum Essential Medium-alpha, supplemented with 10% FCS. In controls, not receiving DIME, 0.1 μg/ml colcemid was added to cultures for 4 hrs prior to the collection of metaphase-blocked cells and preparation of cell spreads. […] Cells (10^7) were isolated from T-75 trypsinization for 5 min with 0.025% trypsin, and sedimented by centrifugation, resuspended and kept in 10 ml of 75 mM KC1 at 37° C. for 10 min, resedimented, and fixed in 10 ml methanol-acetic acid, with four successive changes of methanol-acetic acid. An aliquot of the final cell suspension (100 μl) was dropped on ethanol-cleaned slides and air-dried.
Cells exposed to different treatments were grown to confluence, trypsinized, and washed with phosphate buffered saline (PBS). For nuclear analysis, cells were fixed in Vindelov Citrate cell buffer: sucrose 250 mM, trisodium citrate. 2H20 40 mM, DMSO 50 ml in 1000 ml solution, pH 7.6. Normal human lymphocytes obtained from blood were used as controls. Each cell sample and control was counted with a hemacytometer and the cell concentration was adjusted to 2×10^6 cells/ml. Two million cells from each cell line in a total volume of 2 ml were washed twice with fresh PBS, treated with 200 μg/ml RNAase at 37° C. for 30 min, and stained with 10 μg/ml propidium iodide for 45 min. Flow cytometric analysis was performed on a FACScan benchtop flow cytometer (Becton-Dickinson, San Jose, Calif., USA) equipped with an air-cooled argon laser tuned to 488 nm. Twenty thousand events were collected as six parameter list mode data for analysis and archival storage. Two light scatter parameters (forward and side), propidium iodide fluorescence measured at 575/26 nm and above 620 nm, and doublet discrimination by fluorescence pulse width and area were acquired at 1024 data channel resolution. Acquisition threshold was set on propidium iodide positive events above channel 100. Gating to exclude small debris, large clumps and cell doublets was done post acquisition.

## COC(=O)c1cc(I)c(Oc2ccc(OC)cc2)c(I)c1 [Compound 1, Methyl 3,5-diiodo-4-(4'-methoxyphenoxy)benzoate]
[1]; 3 days pretreatment, followed 25 days
  tumorigenicity of pretreated cells: nearly completely abolished tumorigenicity
[1]; 4 days pretreatment
  tumor formation from pretreated cells (FIG. 4): tumor formation was completely abrogated
[1]; 4 days pretreatment, tumor size at day 25
  Efficacy (inhibition of E-ras 20 tumorigenicity, DIME = 100): 100%
[2]; A-549 cells
  ester bond cleavage by A-549 cells: readily cleave the ester bond
[2]; intact cells preincubated 24 hours with 1 μM DIME
  esterase induction: esterase is not induced by DIME
MDA-MB-231 cells; 18 hrs of drug exposure
  M phase block (nuclei with G2 content of DNA): nuclei with a G2 content of DNA had accumulated, indicating M phase block
MDA-MB-231 cells; colcemid 0.1 μg/ml, 4 hrs
  cell cycle block in M phase, comparison of DIME and colcemid: indistinguishable with respect to the cell cycle block in M phase

— patent publication US6017958A, “Method of treating malignant tumors with thyroxine analogues having no significant hormonal activity” (Octamer, Inc., priority 1997, dated 2000)
